The nature of data set [1]: Binding affinity to HIV1 HXB2 gp41 by fluorescence assay. Also noted: species or system Human immunodeficiency virus 1.
Data set [2] can be described thus: Inhibition of gp41 in HIV1 HXB2 assessed as cell-cell fusion inhibition after 6 hrs by luciferase reporter gene assay. The conditions noted are these: Human immunodeficiency virus 1, HXB2, 6 h. A general note: Reporter assays use an easily measured gene product as a stand-in for the process of interest.
The nature of data set [3]: Cytotoxicity against human MAGI-CCR5 cells assessed as cell viability by MTS assay. Format: cell-based. On the technique in general: Tetrazolium dyes change colour on reduction, which living cells bring about.
Data set [4] relates to Human immunodeficiency virus 1. The experiment in a line: Antiviral activity against HIV1 3B assessed as inhibition of viral replication by CCR5/CXCR4-tropic MAGI assay in presence of 10% serum. Format: functional, organism-based. The conditions noted are these: Human immunodeficiency virus 1, 3B.
Data set [5] has as its system Human immunodeficiency virus 1. In words: Antiviral activity against HIV1 Ba-L assessed as inhibition of viral replication by CCR5/CXCR4-tropic MAGI assay in presence of 2% serum. Format: functional, organism-based. Particulars: Human immunodeficiency virus 1, Ba-L.
Data set [6] has as its system Human immunodeficiency virus 1. In words: Antiviral activity against HIV1 Ba-L assessed as inhibition of viral replication by CCR5/CXCR4-tropic MAGI assay in presence of 10% serum. Format: functional, organism-based. Particulars: Human immunodeficiency virus 1, Ba-L.
Data set [7] relates to Human immunodeficiency virus 1. In words: Antiviral activity against HIV1 Ba-L assessed as inhibition of viral replication by CCR5/CXCR4-tropic MAGI assay in presence of 5% serum. In kind it is functional, organism-based. Particulars: Human immunodeficiency virus 1, Ba-L.
Data set [8] is described as follows: Cytotoxicity against human MAGI-CCR5 cells assessed as cell viability by MTS assay in presence of 5% serum. In kind it is cell-based.
A short description of data set [9]: Cytotoxicity against human MAGI-CCR5 cells assessed as cell viability by MTS assay in presence of 2% serum. In kind it is cell-based.
Data set [10] can be described thus: Cytotoxicity against human MAGI-CCR5 cells assessed as cell viability by MTS assay in presence of 10% serum. In kind it is cell-based.

For orientation: Ki means the equilibrium dissociation constant of an inhibitor or competing ligand from its target. As a reminder, the EC50 is the concentration needed to bring the measured effect to its halfway point. What is called CC50 is the concentration at which the toxic effect on the cells reaches its halfway point.

In data set [1], `O=C(O)c1cccc(Cc2ccc3c(ccn3Cc3cccc(C(=O)O)c3)c2)c1` came in with a Ki of 35 µM. Also, the EC50 in data set [2] is > 100000 nM. In addition, the CC50 in data set [3] (MAGI-CCR5 cells) is > 100 µM.
For the molecule `COc1cccc(-n2ccc3ccc(Cc4cccc(C(=O)O)c4)cc32)c1`, the EC50 was determined as 61.5 µM in data set [4], 15.8 µM in data set [5], 67.7 µM in data set [6] and 34 µM in [7]. For the same molecule, the CC50 in data set [8], in data set [9] and in [10] was > 100 µM in each case.
With `COc1ccc(COc2cccc(-c3ccc4ccn(Cc5cccc(C(=O)OCc6cccc(C(=O)O)c6)c5)c4c3)c2)cc1`, the EC50 in [4] was 34.3 µM; in data set [5], 13.8 µM; in data set [6], 22.6 µM; in data set [7] it was 18.7 µM. Also, the CC50 was > 100 µM in [3] (magi-ccr5), > 100 µM in [8], 58.9 µM in [9] and > 100 µM in [10].
As to `O=C(O)c1cccc(Cc2ccc3[nH]ccc3c2)c1`, the concentration giving a half-maximal response (EC50) in data set [4] was > 100 µM; in data set [5], 42.4 µM; in data set [6], 63.5 µM; in data set [7] it was 52.4 µM. Besides, the CC50 in data set [3] (MAGI-CCR5 cells) is > 400 µM; in [8], > 100 µM; in data set [9], > 100 µM; in data set [10] it was > 100 µM.
For `O=C(O)c1cccc(Cc2ccc3cc[nH]c3c2)c1`, the EC50 in data set [4] came to 100 µM; in data set [5] it was 15.5 µM; in data set [6] it was 44.7 µM; in data set [7], 34.8 µM. In addition, the cytotoxic concentration (CC50) in data set [8], in data set [9] and in data set [10] was > 100 µM in each case.
As to `O=C(O)C(=O)c1c[nH]c2cc(Cc3cccc(C(=O)O)c3)ccc12`, the CC50 in data set [3] (MAGI-CCR5 cells) is > 100 µM.
For the molecule `O=C(O)c1cccc(-c2ccc3cc[nH]c3c2)c1`, the CC50 in data set [3] (MAGI-CCR5 cells) is > 100 µM.
Regarding `O=C(O)c1cccc(Cc2ccc3ccn(Cn4ccc5ccc(Cc6cccc(C(=O)O)c6)cc54)c3c2)c1`, the EC50 in data set [4] is > 100 µM; in data set [5], 14.6 µM; in [6], 92.1 µM; in data set [7], 49.6 µM. Further, the CC50 in [8], in data set [9] and in data set [10] was > 100 µM throughout.
Turning to `COc1ccc(C(=O)O)cc1Cc1ccc2cc[nH]c2c1`, the EC50 in data set [4], in [5], in data set [6] and in data set [7] was > 100 µM each time. The CC50 in [3] (magi-ccr5), in data set [8], in data set [9] and in data set [10] was > 100 µM throughout.
On to `O=C(O)c1cc(O)cc(Cc2ccc3cc[nH]c3c2)c1`, for which the EC50 in data set [4], in data set [5], in [6] and in data set [7] was > 100 µM each time. Further, the CC50 is > 500 µM in data set [3] (MAGI-CCR5 cells), > 100 µM in data set [8], > 100 µM in [9] and > 100 µM in data set [10].
For the molecule `O=C(O)c1cccc(Cn2ccc3ccc(-c4cccc(O)c4)cc32)c1`, the EC50 in data set [4] is > 100 µM; in data set [5], 27.6 µM; in data set [6] it was 82.7 µM; in data set [7], 58.5 µM. In addition, the CC50 in data set [3] (magi-ccr5), in data set [8], in data set [9] and in [10] was > 100 µM in each case.
On to `COc1ccc(Cn2ccc3ccc(-c4ccc5ccn(Cc6cccc(C(=O)O)c6)c5c4)cc32)cc1`, for which the EC50 in data set [4] amounted to 2.8 µM; in data set [5] it was 0.92 µM; in [6] it was 2.38 µM; in data set [7], 2.01 µM. In addition, the CC50 in data set [3] (magi-ccr5) was 19 µM; in [8] it was > 100 µM; in data set [9], 50.1 µM; in [10], > 100 µM.
Turning to `O=C(O)c1cccc(Cn2ccc3ccc(-c4ccc5cc(Cl)ccc5n4)cc32)c1`, the EC50 in data set [4] is > 100 µM; in data set [5], 48 µM; in [6] it was > 100 µM; in data set [7] it was 88.5 µM. The CC50 in data set [3] (magi-ccr5) is 47 µM; in data set [8], > 100 µM; in [9], > 100 µM; in data set [10] it was > 100 µM.
In the case of `O=C(O)c1cccc(COc2cccc(-c3ccc4ccn(Cc5cccc(C(=O)O)c5)c4c3)c2)c1`, the EC50 in [4] was > 100 µM; in data set [5], 34.2 µM; in data set [6], > 100 µM; in data set [7], 56.2 µM. Besides, the CC50 was > 500 µM in [3] (MAGI-CCR5 cells), > 100 µM in data set [8], > 100 µM in data set [9] and > 100 µM in [10].
On to `O=C(O)c1ccc(O)c(Cc2ccc3cc[nH]c3c2)c1`, for which the 50% effective concentration (EC50) is > 100 µM in data set [4], 42.7 µM in data set [5], > 100 µM in data set [6] and 89.3 µM in [7]. Also, the cytotoxic concentration (CC50) in [3] (MAGI-CCR5 cells) was > 500 µM; in [8] it was > 100 µM; in data set [9] it was > 100 µM; in data set [10] it was > 100 µM.
Take `COc1cccc(-c2ccc3ccn(Cc4cccc(C(=O)O)c4)c3c2)c1`: the EC50 amounted to 57.4 µM in data set [4], 18 µM in data set [5], 47.4 µM in [6] and 36.6 µM in data set [7]. Also, the CC50 in data set [3] (MAGI-CCR5 cells) is > 500 µM; in [8], > 100 µM; in data set [9], 67.5 µM; in data set [10] it was > 100 µM.
In the case of `O=C(O)c1cccc(Cn2ccc3ccc(-c4ccc5ccn(Cc6ccc(F)cc6)c5c4)cc32)c1`, in data set [1], the affinity corresponds to a Ki of 1.1 µM. Further, the EC50 turned out to be 5.2 µM in data set [4]; 1.56 µM in data set [5]; 4.49 µM in data set [6]; 540 nM in [2]; 3.3 µM in data set [7]. Further, the 50% cytotoxic concentration (CC50) was 17 µM in data set [3] (magi-ccr5), 98.5 µM in data set [8], 52.2 µM in data set [9] and > 100 µM in data set [10].
With `O=C(O)c1ccc([N+](=O)[O-])c(Cc2ccc3cc[nH]c3c2)c1`, the EC50 in data set [4] was > 100 µM; in data set [5], 18.5 µM; in data set [6] it was > 100 µM; in [7], 82.7 µM. Besides, the CC50 in [3] (magi-ccr5), in data set [8], in data set [9] and in data set [10] was > 100 µM each time.
With `O=Cc1c[nH]c2cc(Cc3cccc(C(=O)O)c3)ccc12`, the CC50 in data set [3] (MAGI-CCR5 cells) is > 100 µM.
Take `COc1cc(Cc2ccc3cc[nH]c3c2)cc(C(=O)O)c1`: the EC50 is > 100 µM in data set [4], 8.65 µM in data set [5], > 100 µM in data set [6] and > 100 µM in data set [7]. For the same molecule, the CC50 in [3] (magi-ccr5), in data set [8], in data set [9] and in [10] was > 100 µM in each case.
In the case of `COc1ccc(Cn2ccc3ccc(Cc4cccc(C(=O)O)c4)cc32)cc1`, the concentration giving a half-maximal response (EC50) in [4] was > 100 µM; in data set [5], 55.8 µM; in [6] it was > 100 µM; in [7], 91.2 µM. Besides, the half-maximal cytotoxic concentration (CC50) in data set [3] (magi-ccr5) was 100 µM; in data set [8] it was > 100 µM; in data set [9] it was 92.7 µM; in data set [10], > 100 µM.
As for `O=C(O)c1cccc(Cc2ccc3ccn(-c4cccc(C(=O)O)c4)c3c2)c1`, the affinity in [1], expressed as Ki, was 45 µM. Besides, the CC50 in [3] (MAGI-CCR5 cells) was > 400 µM.
`O=C(O)c1cccc(Cn2ccc3cc(-c4ccc5cc(Cl)ccc5n4)ccc32)c1`: the EC50 in data set [4] turned out to be 15.5 µM; in data set [5], 6.41 µM; in [6] it was 13.1 µM; in [7], 10.1 µM. Besides, the CC50 in [3] (magi-ccr5) is > 100 µM; in [8] it was > 100 µM; in data set [9] it was 50.1 µM; in data set [10], > 100 µM.
For the molecule `O=C(O)c1cccc(Cc2ccc3ccn(Cc4cccc(C(=O)O)c4)c3c2)c1`, the CC50 in data set [3] (MAGI-CCR5 cells) was > 200 µM.

These data come from ChEMBL document CHEMBL2150883, “Development of indole compounds as small molecule fusion inhibitors targeting HIV-1 glycoprotein-41” (J Med Chem, 2011).
